# Experimental data from publication PMC11859905, “Flavonoids as Potential Modulators of Pancreatic Lipase Catalytic Activity” (Pharmaceutics, 2025).
# Read-outs that look alike come from different tables or passages of the source.
# Key:
# [1] = biological target: T1, human pancreatic lipase (Homo sapiens, UniProt P16233); experiment: In vitro assay using human pancreatic lipase (4-MUO hydrolysis, fluorometric); assay type: biochemical; settings: for inhibitory activity against HPL (in words): at the maximum concentration that could be tested; for IC50: human PL 2 U/mL, 4-MUO 0.05 mM, mean ± SEM;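 on all read-outs here: Read-out is the initial rate of fluorescent 4-MU release as HPL cleaves the 4-MUO substrate, a rate that scales with the amount of enzyme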
# T1 construct: PL from the human pancreas (triacylglycerol acyl hydrolase, EC 3.1.1.3); from tissue; host or cells: human pancreas
# T1 sequence (P16233 17-465): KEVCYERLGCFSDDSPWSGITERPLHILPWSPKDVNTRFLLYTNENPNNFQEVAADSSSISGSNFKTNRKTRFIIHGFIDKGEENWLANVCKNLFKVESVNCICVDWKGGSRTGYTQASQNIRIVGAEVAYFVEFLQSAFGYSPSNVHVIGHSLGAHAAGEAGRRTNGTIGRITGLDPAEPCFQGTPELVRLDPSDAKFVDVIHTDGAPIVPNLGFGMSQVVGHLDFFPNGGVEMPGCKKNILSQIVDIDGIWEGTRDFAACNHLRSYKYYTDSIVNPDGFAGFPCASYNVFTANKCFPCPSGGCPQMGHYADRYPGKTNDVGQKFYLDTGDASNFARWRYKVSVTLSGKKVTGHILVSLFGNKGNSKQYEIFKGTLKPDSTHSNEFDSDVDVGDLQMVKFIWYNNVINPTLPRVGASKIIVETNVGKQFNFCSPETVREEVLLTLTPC
# [2] = biological target: T2, porcine pancreatic lipase (Sus scrofa, UniProt P00591); experiment: In vitro assay using porcine pancreatic lipase (4-MUO hydrolysis, fluorometric); settings: for inhibitory activity against PPL (in words): at the maximum concentration that could be tested;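 on all read-outs here: product 4-methylumbeliferone formation tracked fluorometrically, catalytic rate from RFU slope over the 10–30 min window, compounds checked beforehand for own fluorescence, at least three independent experiments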
# T2 sequence (P00591 1-450): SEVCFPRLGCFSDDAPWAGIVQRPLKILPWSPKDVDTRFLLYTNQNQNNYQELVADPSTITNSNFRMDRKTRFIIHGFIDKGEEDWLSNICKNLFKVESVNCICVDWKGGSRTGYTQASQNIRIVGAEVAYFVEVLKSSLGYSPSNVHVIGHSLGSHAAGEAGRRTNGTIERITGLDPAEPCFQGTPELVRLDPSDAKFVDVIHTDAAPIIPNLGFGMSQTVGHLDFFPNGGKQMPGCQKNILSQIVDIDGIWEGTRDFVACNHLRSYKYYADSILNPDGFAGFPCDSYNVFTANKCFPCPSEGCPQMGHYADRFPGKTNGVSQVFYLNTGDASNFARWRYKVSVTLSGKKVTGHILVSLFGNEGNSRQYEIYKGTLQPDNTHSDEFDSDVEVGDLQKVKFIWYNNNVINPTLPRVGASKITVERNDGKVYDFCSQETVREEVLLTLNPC
# [3] = at 50 μM, read-out: PL Inhibition (%) ± SEM, Human
# [4] = read-out: PL Inhibition (%) ± SEM, Porcine
# [5] = read-out: PL Inhibition (%) ± SEM, Human, at 50 μM
# [6] = read-out: PL Inhibition (%) ± SEM, Human
smiles,measurement,setting,value
"O=c1c(O)c(-c2ccc(O)c(O)c2)oc2cc(O[C@@H]3O[C@H](CO)[C@@H](O)[C@H](O)[C@H]3O)cc(O)c12 [Flavonoid 33, Quercimeritrin]",inhibition at 50 µM,[1]; [3],< 30%
same,inhibitory activity against HPL (in words),[1],did not show significant inhibitory activity
same,inhibitory activity against PPL (in words),[2],did not show significant inhibitory activity
same,inhibition at 50 µM,[2]; [4],< 30%
"O=c1cc(-c2ccccc2)oc2cc(O)cc(O)c12 [Flavonoid 13, Chrysin]",inhibition at 50 µM,[1]; [3],< 30%
same,inhibition at 50 µM,[2]; [4],< 30%
"O=c1c(O)c(-c2ccc(O)c(O)c2)oc2c(O)c(O)cc(O)c12 [Flavonoid 47, Gossypetin]",inhibition at 50 µM,[1]; [5],37 ± 1%
same,inhibition at 50 µM,[2]; [4],36 ± 3%
"O=c1c(O)c(-c2ccc(O)c(O)c2)oc2c(O[C@@H]3O[C@H](CO)[C@@H](O)[C@H](O)[C@H]3O)c(O)cc(O)c12 [Flavonoid 48, Gossypin]",inhibition at 12.5 µM,"[1]; at 12.5 μM, read-out: PL Inhibition (%) ± SEM, Human",< 30%
same,inhibitory activity against HPL (in words),[1],did not show significant inhibitory activity
same,inhibitory activity against PPL (in words),[2],did not show significant inhibitory activity
same,inhibition at 12.5 µM,[2]; [4],< 30%
"O=c1c(O)c(-c2ccc(O[C@@H]3O[C@H](CO)[C@@H](O)[C@H](O)[C@H]3O)c(O)c2)oc2cc(O)cc(O)c12 [Flavonoid 34, Spiraeoside]",inhibition at 50 µM,[1]; [3],< 30%
same,inhibitory activity against HPL (in words),[1],did not show significant inhibitory activity
same,inhibitory activity against PPL (in words),[2],did not show significant inhibitory activity
same,inhibition at 50 µM,[2]; [4],< 30%
"O=c1c(O)c(-c2ccc(O)cc2)oc2cc(O)cc(O)c12 [Flavonoid 24, Kaempferol]",inhibition at 100 µM,[1]; [6],39 ± 3%
same,IC50,"[2]; read-out: IC50 (μM) ± SEM, Porcine, porcine PL 0.04 mg/mL, 4-MUO 0.05 mM, mean ± SEM",79 ± 6 µM
"O=c1c(O)c(-c2ccc(O)c(O)c2)oc2c(O)c(O)ccc12 [Flavonoid 45, Melanoxetin]",inhibition at 25 µM,[1]; [6],< 30%
same,inhibition at 25 µM,[2]; [4],< 30%
O=c1cc(-c2ccccc2)oc2cc(O)ccc12 [Flavonoid 9],inhibition at 50 µM,[1]; [5],< 30%
same,inhibition at 50 µM,[2]; [4],< 30%
O=c1cc(-c2ccc(O)cc2)oc2ccccc12 [Flavonoid 3],inhibition at 25 µM,[1]; [6],< 30%
same,inhibition at 25 µM,[2]; [4],< 30%
"C[C@@H]1O[C@@H](OC[C@H]2O[C@@H](Oc3c(-c4ccc(O)c(O)c4)oc4cc(O)cc(O)c4c3=O)[C@H](O)[C@@H](O)[C@@H]2O)[C@H](O)[C@H](O)[C@H]1O [Flavonoid 32, Rutin]",inhibition at 50 µM,[1]; [3],34 ± 1%
same,inhibitory activity against HPL (in words),[1],did not show significant inhibitory activity
same,inhibitory activity against PPL (in words),[2],did not show significant inhibitory activity
same,inhibition at 50 µM,[2]; [4],< 30%
"O=c1c(O[C@@H]2O[C@H](CO)[C@@H](O)[C@H](O)[C@H]2O)c(-c2ccc(O)cc2)oc2cc(O)cc(O)c12 [Flavonoid 25, Astragalin]",inhibition at 50 µM,[1]; [3],34 ± 1%
same,inhibitory activity against HPL (in words),[1],did not show significant inhibitory activity
same,inhibitory activity against PPL (in words),[2],did not show significant inhibitory activity
same,inhibition at 50 µM,[2]; [4],< 30%
"O=c1c(O)c(-c2ccccc2)oc2cc(O)cc(O)c12 [Flavonoid 23, Galangin]",inhibition at 50 µM,[1]; [3],< 30%
same,inhibition at 50 µM,[2]; [4],41 ± 1%
O=c1c(OC2OC(CO)C(O)C(O)C2O)c(-c2ccc(O)c(O)c2)oc2cc(O)cc(O)c12 (centres unmarked) [Flavonoid 31],inhibition at 50 µM,[1]; [3],< 30%
same,inhibitory activity against HPL (in words),[1],did not show significant inhibitory activity
same,inhibitory activity against PPL (in words),[2],did not show significant inhibitory activity
same,inhibition at 50 µM,[2]; [4],< 30%
"O=c1cc(-c2ccc(O)c(O)c2)oc2cc(O)cc(O)c12 [Flavonoid 16, Luteolin]",inhibition at 50 µM,[1]; [3],54 ± 2%
same,IC50,[2],32 ± 2 µM
O=c1c(O)c(-c2ccc(O)cc2)oc2c(O)c(O)ccc12 [Flavonoid 44],inhibition at 50 µM,[1]; [3],< 30%
same,inhibition at 50 µM,[2]; [4],42 ± 2%
CCCCc1c(-c2ccc(O)c(O)c2)oc2cc(O)cc(O)c2c1=O [Flavonoid 28],IC50,[1],42 ± 2 µM
same,IC50,[2],13 ± 1 µM
O=c1cc(-c2ccc(O)cc2)oc2cccc(O)c12 [Flavonoid 7],inhibition at 25 µM,[1]; [6],< 30%
same,inhibition at 25 µM,[2]; [4],< 30%
"Oc1cc(O)c2c(c1)OC(c1cc(O)c(O)c(O)c1)C(O)C2 (single isomer, unassigned; (-)) [Flavonoid 40, (–)-Epigallocatechin]",inhibition at 100 µM,[1]; [6],< 30%
same,inhibition at 100 µM,[2]; [4],< 30%
"O=c1c(O)c(-c2ccc(O)cc2)oc2c(O)c(O)cc(O)c12 [Flavonoid 46, Herbacetin]",inhibition at 50 µM,[1]; [3],39 ± 3%
same,inhibition at 50 µM,[2]; [4],46 ± 4%
O=c1cc(-c2ccc(O)c(O)c2)oc2ccccc12 [Flavonoid 4],inhibition at 100 µM,[1]; [6],< 30%
same,inhibition at 100 µM,[2]; [4],< 30%
"O=c1cc(-c2ccccc2)oc2c(O)c(O)cc(O)c12 [Flavonoid 42, Norwogonin]",IC50,[1],79 ± 3 µM
same,IC50,[2],98 ± 9 µM
"O=c1c(-c2ccc(O)cc2)coc2cc(O)cc(O)c12 [Flavonoid 17, Genistein]",inhibition at 100 µM,[1]; [6],< 30%
same,inhibitory activity against HPL (in words),[1],did not show significant inhibitory activity
same,inhibitory activity against PPL (in words),[2],did not show significant inhibitory activity
same,inhibition at 100 µM,[2]; [4],< 30%
O=c1cc(-c2cccc(O)c2)oc2cccc(O)c12 [Flavonoid 6],inhibition at 25 µM,[1]; [6],32.3 ± 0.1%
same,inhibition at 25 µM,[2]; [4],< 30%
"O=c1c(O)c(-c2ccc(O)cc2)oc2cc(OC3OC(CO)C(O)C(O)C3O)cc(O)c12 (centres unmarked) [Flavonoid 26, Populnin]",inhibition at 100 µM,[1]; [6],< 30%
same,inhibitory activity against HPL (in words),[1],did not show significant inhibitory activity
same,inhibitory activity against PPL (in words),[2],did not show significant inhibitory activity
same,inhibition at 100 µM,[2]; [4],< 30%
O=c1cc(-c2ccc(O)c(O)c2)oc2cccc(O)c12 [Flavonoid 8],inhibition at 50 µM,[1]; [6],< 30%
same,inhibition at 50 µM,[2]; [4],46 ± 2%
"O=c1cc(-c2ccc(O)cc2)oc2cc(O)cc(O)c12 [Flavonoid 15, Apigenin]",IC50,[1],75 ± 2 µM
same,IC50,[2],41 ± 1 µM
O=c1c(O)c(-c2ccc(O)c(O)c2)oc2ccccc12 [Flavonoid 18],inhibition at 50 µM,[1]; [3],44 ± 5%
same,inhibitory activity against HPL (in words),[1],did not show significant inhibitory activity
same,inhibitory activity against PPL (in words),[2],did not show significant inhibitory activity
same,inhibition at 50 µM,[2]; [4],41 ± 4%
O=c1cc(-c2cc(O)c(O)c(O)c2)oc2cccc(O)c12 [Flavonoid 36],IC50,[1],7 ± 1 µM
same,IC50,[2],20 ± 3 µM
O=c1cc(-c2ccccc2)oc2cccc(O)c12 [Flavonoid 5],inhibition at 50 µM,[1]; [3],< 30%
same,inhibition at 50 µM,[2]; [4],< 30%
O=c1c(OC2OC(CO)C(O)C(O)C2O)c(-c2ccc(OC3OC(CO)C(O)C(O)C3O)c(O)c2)oc2cc(O)cc(O)c12 (centres unmarked) [Flavonoid 35],inhibitory activity against HPL (in words),[1],did not show significant inhibitory activity
same,inhibition at 50 µM,[1]; [5],< 30%
same,inhibitory activity against PPL (in words),[2],did not show significant inhibitory activity
same,inhibition at 50 µM,[2]; [4],< 30%
O=c1cc(-c2cccc(O)c2)oc2cc(O)ccc12 [Flavonoid 10],inhibition at 100 µM,[1]; [6],< 30%
same,inhibition at 100 µM,[2]; [4],< 30%
O=c1cc(-c2ccc(O)c(O)c2)oc2c(O)c(O)ccc12 [Flavonoid 43],inhibition at 50 µM,[1]; [3],< 30%
same,inhibition at 50 µM,[2]; [4],< 30%
O=c1cc(-c2cccc(O)c2)oc2ccccc12 [Flavonoid 2],inhibition at 100 µM,[1]; [6],< 30%
same,inhibition at 100 µM,[2]; [4],< 30%
CCCCCCc1c(-c2ccc(O)c(O)c2)oc2cc(O)cc(O)c2c1=O [Flavonoid 29],IC50,[1],16.4 ± 0.7 µM
same,IC50,[2],10.1 ± 0.4 µM
"O=c1cc(-c2ccccc2)oc2ccccc12 [Flavonoid 1, Flavone]",inhibition at 100 µM,[1]; [6],< 30%
same,inhibition at 100 µM,[2]; [4],< 30%
O=c1cc(-c2cccc(O)c2)oc2cc(O)cc(O)c12 [Flavonoid 14],IC50,[1],54 ± 5 µM
same,IC50,[2],73 ± 7 µM
